Data from article PMC8003485, “Synthesis and Evaluation of Novel α-Aminoamides Containing Benzoheterocyclic Moiety for the Treatment of Pain” (Molecules, 2021).
Read-outs that look alike come from different tables or passages of the source.

Tests used:
ICR (CD−1) male mice [1] = experiment: Formalin test (mouse, phase II paw licking); format: in vivo; details: 10 mg/kg; for inhibition in vivo at 10 mg/kg: Mus musculus, ip, read-out: % Analgesia (formalin test); for Percentage of analgesia relative to ralfinamide (times higher): formalin test
Protocol: The formalin test was carried out using the method described previously. During the formalin test, Institute of Cancer Research (ICR; CD−1) male mice (weight: 22–25 g) were acclimated to the environment for two days before the experiment with food and water available freely. The mice were housed under a 12 h/12 h light/dark cycle. The temperature and humidity of the room were kept at 25 ± 2 °C and 50–60%, respectively. The mice were divided into a vehicle group, a ralfinamide group, and test compound groups randomly, with eight mice in each group. All compounds were dissolved in saline and administered by intraperitoneal injection (n = 8) or intragastric administration by mouth (n = 8) at 10 mg/kg. The vehicle group was given the same volume of saline.
After administration, the mice were placed into polyvinyl chloride (PVC) observation chambers. Thirty minutes later, the mice were injected subcutaneously with 20 μL of 2.7% formalin solution into the surface of their right hind paw and were returned to their PVC chambers immediately to observe their behavior. The cumulative time each mouse licked its right hind paw during phase II (15–30 min) was recorded as its painful time in phase II. The analgesic effects of the compounds were presented as the mean ± standard deviation. The data were analyzed by SPSS using one-way analysis of variance followed by Dunnett’s test. The analgesic activity of the test compounds was calculated according to the following formula. %Analgesia=Average Time (Vehicle)−Average Time (Drug)/Average Time (Vehicle)× 100%

hNav1.7 = target: T1, hNav1.7 (Homo sapiens, UniProt Q15858); experiment: Whole-cell patch clamp assay for hNav1.7 inhibition (HEK293 cells stably expressing hNav1.7); format: cell-based; details: for inhibition at 10 µM: HEK293, TTX-sensitive Nav1.7 current, mean ± SD; for IC50: Table 4, TTX-sensitive inactivated Nav1.7 current
T1 construct: expressed in transfected cells; host or cells: HEK293
T1 sequence (Q15858 whole entry): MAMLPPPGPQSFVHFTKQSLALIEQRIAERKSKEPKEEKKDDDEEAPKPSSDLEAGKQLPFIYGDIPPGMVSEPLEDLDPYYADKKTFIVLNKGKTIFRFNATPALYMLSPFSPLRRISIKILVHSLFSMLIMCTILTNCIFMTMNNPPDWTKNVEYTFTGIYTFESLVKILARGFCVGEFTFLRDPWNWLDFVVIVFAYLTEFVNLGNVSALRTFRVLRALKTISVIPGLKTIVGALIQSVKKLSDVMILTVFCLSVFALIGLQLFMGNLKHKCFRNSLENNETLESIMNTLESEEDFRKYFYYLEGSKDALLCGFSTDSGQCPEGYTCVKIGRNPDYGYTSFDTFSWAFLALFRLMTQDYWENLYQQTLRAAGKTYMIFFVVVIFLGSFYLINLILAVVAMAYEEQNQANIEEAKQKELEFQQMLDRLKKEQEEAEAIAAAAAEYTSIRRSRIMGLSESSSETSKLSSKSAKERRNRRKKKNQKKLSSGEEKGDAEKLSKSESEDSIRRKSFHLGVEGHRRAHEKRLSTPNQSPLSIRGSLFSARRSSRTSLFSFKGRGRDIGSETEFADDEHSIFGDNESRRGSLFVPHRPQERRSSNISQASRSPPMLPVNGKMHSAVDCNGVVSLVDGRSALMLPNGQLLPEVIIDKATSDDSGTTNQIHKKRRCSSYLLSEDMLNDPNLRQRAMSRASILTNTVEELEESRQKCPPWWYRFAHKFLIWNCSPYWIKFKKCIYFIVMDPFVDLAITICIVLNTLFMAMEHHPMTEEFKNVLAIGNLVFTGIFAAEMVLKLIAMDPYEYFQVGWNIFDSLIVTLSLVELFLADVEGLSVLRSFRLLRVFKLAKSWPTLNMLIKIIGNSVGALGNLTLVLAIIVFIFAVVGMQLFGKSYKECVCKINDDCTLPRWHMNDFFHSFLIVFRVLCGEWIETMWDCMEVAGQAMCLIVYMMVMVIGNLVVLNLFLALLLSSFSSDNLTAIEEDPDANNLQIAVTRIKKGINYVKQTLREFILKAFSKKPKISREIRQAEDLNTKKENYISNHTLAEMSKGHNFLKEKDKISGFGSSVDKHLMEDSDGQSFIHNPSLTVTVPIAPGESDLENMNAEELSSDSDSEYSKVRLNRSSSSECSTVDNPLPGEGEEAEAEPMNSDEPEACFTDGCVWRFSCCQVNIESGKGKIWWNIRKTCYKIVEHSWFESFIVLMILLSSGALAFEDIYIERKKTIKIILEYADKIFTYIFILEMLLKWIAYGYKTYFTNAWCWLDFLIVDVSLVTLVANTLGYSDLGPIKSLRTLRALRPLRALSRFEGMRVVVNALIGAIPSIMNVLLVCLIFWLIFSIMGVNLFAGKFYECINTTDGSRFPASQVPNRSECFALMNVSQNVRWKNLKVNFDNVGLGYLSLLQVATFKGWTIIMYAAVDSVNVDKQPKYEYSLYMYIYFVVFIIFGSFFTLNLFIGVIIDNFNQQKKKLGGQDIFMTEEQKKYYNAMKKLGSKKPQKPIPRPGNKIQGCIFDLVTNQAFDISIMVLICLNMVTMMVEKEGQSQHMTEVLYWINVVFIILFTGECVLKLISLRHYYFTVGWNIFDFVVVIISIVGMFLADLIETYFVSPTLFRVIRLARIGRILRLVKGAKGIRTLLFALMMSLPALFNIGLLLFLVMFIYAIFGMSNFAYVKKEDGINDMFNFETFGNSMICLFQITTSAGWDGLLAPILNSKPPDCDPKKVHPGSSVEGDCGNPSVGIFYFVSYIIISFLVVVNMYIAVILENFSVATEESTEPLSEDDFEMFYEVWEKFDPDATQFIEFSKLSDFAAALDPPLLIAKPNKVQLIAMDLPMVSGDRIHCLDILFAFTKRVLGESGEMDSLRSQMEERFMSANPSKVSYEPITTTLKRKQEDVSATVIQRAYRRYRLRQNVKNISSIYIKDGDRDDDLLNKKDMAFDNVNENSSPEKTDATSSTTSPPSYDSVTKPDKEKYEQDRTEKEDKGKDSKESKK
Protocol: The compounds were tested as hNav1.7 peak current inhibitors at room temperature using human embryonic kidney 293 cells stably expressing hNav1.7. The holding voltage was depolarized to 0 mV from −120 mV for 20 ms and restored to −75 mV for 8 s. After that, the membrane potential was recovered to −120 mV for 20 ms and then depolarized to 0 mV for another 20 ms. Finally, the voltage was renewed to −120 mV for 30 ms. The potential was applied every 20 s. The compounds were administered when the voltage of hNav1.7 recorded by the whole-cell patch clamp was stable. Every compound concentration was tested for 5 min, and all compounds were tested at several concentrations and with multiple cells.

ICR (CD-1) male mice = experiment: Acetic acid-induced writhing test; format: in vivo; details: 10 mg/kg, i.p.; writhes in 20 min; mean ± SD, n = 6
Protocol: The writhing test was performed according to a previously reported method. The ICR (CD-1) male mice (weight: 22–25 g) were treated as for the formalin test in the same environment. The mice were divided into a vehicle group, a ralfinamide group, and test compound groups randomly, with six mice in each group. All compounds were dissolved in saline and administered by intraperitoneal injection at 10 mg/kg. The vehicle group was given the same volume of saline. After administration, the mice were placed into PVC chambers. Thirty minutes later, the mice were injected with 1% acetic acid solution at 10 mL/kg by intraperitoneal injection and placed into the observation chambers immediately to record the number of writhes each mouse had in 20 min. The results were presented as the mean ± standard deviation. The analytical method was the same as that for the formalin test, and the analgesic activity of each compound was calculated by the following formula. %Analgesia=Average Number (Vehicle)−Average Number (Drug)/Average Number (Vehicle)× 100%

hNav1.8 = target: T2, hNav1.8 (Homo sapiens, UniProt Q9Y5Y9); experiment: Whole-cell patch clamp assay for hNav1.8 inhibition (CHO cells stably expressing hNav1.8); format: cell-based; details: Nav1.8 inactivated state Na+ currents
T2 construct: expressed in transfected cells; host or cells: CHO
T2 sequence (Q9Y5Y9 whole entry): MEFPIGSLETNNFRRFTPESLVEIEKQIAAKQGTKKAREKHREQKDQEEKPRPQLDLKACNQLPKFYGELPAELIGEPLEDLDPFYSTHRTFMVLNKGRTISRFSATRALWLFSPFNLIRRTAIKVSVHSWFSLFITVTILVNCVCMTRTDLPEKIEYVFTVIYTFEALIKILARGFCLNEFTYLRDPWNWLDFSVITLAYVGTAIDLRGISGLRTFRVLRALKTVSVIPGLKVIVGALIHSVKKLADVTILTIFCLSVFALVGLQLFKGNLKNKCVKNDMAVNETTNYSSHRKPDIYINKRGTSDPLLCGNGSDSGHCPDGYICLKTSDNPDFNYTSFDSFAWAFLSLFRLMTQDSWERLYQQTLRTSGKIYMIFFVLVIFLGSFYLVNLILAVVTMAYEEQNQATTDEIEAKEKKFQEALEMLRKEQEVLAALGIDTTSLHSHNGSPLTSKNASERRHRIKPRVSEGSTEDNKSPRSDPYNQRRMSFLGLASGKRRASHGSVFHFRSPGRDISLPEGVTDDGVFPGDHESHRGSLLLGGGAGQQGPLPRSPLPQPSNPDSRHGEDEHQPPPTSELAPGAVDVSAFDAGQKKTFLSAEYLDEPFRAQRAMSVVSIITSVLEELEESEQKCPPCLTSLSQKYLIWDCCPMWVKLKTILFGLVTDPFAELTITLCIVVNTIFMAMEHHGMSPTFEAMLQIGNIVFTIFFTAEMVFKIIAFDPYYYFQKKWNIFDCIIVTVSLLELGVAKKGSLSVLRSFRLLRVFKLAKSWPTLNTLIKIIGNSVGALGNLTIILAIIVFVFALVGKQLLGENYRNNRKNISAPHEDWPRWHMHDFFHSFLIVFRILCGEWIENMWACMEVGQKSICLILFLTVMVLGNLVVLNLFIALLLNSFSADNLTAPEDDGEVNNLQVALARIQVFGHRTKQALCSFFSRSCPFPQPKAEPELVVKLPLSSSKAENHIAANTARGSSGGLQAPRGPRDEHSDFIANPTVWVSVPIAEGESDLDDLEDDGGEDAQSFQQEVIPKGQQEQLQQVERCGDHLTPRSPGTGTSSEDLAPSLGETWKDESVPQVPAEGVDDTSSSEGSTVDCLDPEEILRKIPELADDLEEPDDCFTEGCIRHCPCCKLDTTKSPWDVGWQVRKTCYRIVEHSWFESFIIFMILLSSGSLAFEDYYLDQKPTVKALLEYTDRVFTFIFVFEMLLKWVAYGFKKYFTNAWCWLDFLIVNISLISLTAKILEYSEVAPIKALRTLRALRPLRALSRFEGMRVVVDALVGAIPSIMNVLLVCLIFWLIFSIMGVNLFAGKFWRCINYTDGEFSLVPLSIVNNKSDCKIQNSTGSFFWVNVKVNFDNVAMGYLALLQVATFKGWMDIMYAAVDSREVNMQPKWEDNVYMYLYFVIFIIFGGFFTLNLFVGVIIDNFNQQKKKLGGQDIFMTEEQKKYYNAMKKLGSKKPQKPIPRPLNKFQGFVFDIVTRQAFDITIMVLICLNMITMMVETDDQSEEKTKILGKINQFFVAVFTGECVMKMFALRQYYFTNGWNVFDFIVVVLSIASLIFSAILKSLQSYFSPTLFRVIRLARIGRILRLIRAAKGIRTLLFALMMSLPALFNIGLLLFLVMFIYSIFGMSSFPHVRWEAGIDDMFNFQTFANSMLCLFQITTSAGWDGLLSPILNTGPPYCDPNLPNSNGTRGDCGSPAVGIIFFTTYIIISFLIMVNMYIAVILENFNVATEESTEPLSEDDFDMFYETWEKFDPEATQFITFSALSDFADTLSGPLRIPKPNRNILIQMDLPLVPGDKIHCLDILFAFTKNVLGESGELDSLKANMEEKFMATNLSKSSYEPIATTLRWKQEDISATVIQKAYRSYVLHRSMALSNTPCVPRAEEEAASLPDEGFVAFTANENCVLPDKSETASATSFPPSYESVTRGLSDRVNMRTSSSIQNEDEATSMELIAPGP
Protocol: The whole-cell patch clamp assay assessing the hNav1.8 current was carried out at room temperature with Chinese hamster ovary cells stably expressing hNav1.8. The holding voltage of the membrane was transferred to 0 mV from −120 mV for 50 ms and then restored to −50 mV for 8 s. After that, the membrane potential was renewed to −120 mV for 20 ms, which was followed by a depolarization to 0 mV for 50 ms. Finally, the potential was recovered to the holding voltage of −120 mV for 30 ms. This process was performed every 20 s. The compounds were administered when the voltage of hNav1.8 was stable. Every compound concentration was tested for 5 min, and all compounds were tested at several concentrations and with multiple cells.

hNav1.5 = target: T3, hNav1.5 (Homo sapiens, UniProt Q14524); experiment: Assay for hNav1.5 inhibition (HEK293 cells stably expressing hNav1.5); format: cell-based; details: for inhibition at 10 µM: HEK293, read-out: Inhibitory Effect to Nav1.5; for Inhibitory activity against Nav1.5 (in words): similarly to ralfinamide, low selectivity over the cardiac sodium channel
T3 construct: expressed in transfected cells; host or cells: HEK293
Protocol: The inhibition of the compounds to hNav1.5 peak current was performed at room temperature using HEK293 cells that could express hNav1.5 stably. The holding voltage of the membrane was transferred to 0 mV from −120 mV for 50 ms and then restored to −50 mV for 8 s. After that, the membrane potential was renewed to −120 mV for 20 ms, followed by a depolarization to 0 mV for 50 ms. At last, the potential was recovered to the holding voltage −120 mV for 30 ms. This progress was performed every 20 s. The compounds were administrated when the voltage of hNav1.5 was stable. Every concentration was tested for 5 min and all compounds were tested at several concentrations and with multiple cells.

mouse [2] = experiment: Mouse hotplate assay; format: in vivo; details: even at a high dose of 100 mg/kg; data not shown
mouse [3] = experiment: Mouse tail flick assay; format: in vivo; details: even at a high dose of 100 mg/kg; data not shown
ICR (CD−1) male mice [4] = experiment: Formalin test (mouse, phase II paw licking); format: in vivo; details: 20 mg/kg, dose-effect relationship assay
[5] = i.p., phase II (15–30 min), mean ± SD, n = 8
[6] = read-out: Inhibitory Effect against Nav1.7, Activated State (TP−1)
[7] = read-out: Inhibitory Effect against Nav1.7, Inactivated State (TP−2)

SMILES | inhibition in vivo at 10 mg/kg (ICR (CD−1) male mice [1]; [5]) | inhibition at 10 µM (hNav1.7; [6]) | inhibition at 10 µM (hNav1.7; [7]) | % Analgesia (acetic acid-induced writhing test) (ICR (CD-1) male mice) | further results
C[C@H](NCc1cccc(COc2cccc3[nH]cnc23)c1)C(N)=O [Compound 5a, (S)-2-((3-(((1H-Benzo[d]imidazol-4-yl)oxy)methyl)benzyl)amino)propanamide] | 51 ± 21.6% | 5.1 ± 1.2% | 10.7 ± 0.4% | – | –
C[C@H](NCc1ccc(COc2cccc3[nH]cnc23)cc1)C(N)=O [Compound 5b, (S)-2-((4-(((1H-Benzo[d]imidazol-4-yl)oxy)methyl)benzyl)amino)propanamide] | 27.4 ± 19.2% | 3.7 ± 2% | 1.4 ± 0.6% | – | –
C[C@H](NCc1cccc(COc2ccc3[nH]cnc3c2)c1)C(N)=O [Compound 5c, (S)-2-((3-(((1H-Benzo[d]imidazol-5-yl)oxy)methyl)benzyl)amino)propanamide] | 48.8 ± 15.5% | 1.7 ± 0.3% | 2.6 ± 0.8% | – | –
C[C@H](NCc1ccc(COc2ccc3[nH]cnc3c2)cc1)C(N)=O [Compound 5d, (S)-2-((4-(((1H-Benzo[d]imidazol-5-yl)oxy)methyl)benzyl)amino)propanamide] | 60.8 ± 32.2% | 0.7 ± 0.8% | 1.5 ± 0.9% | – | –
C[C@H](NCc1ccc(COc2cccc3occc23)cc1)C(N)=O [Compound 6b, (S)-2-((4-((Benzofuran-4-yloxy)methyl)benzyl)amino)propanamide] | 48.4 ± 26.4% | 11.8 ± 0.3% | 55.5 ± 2.5% | 48.0 ± 5.8 ^☆ % | –
C[C@H](NCc1cccc(COc2ccc3occc3c2)c1)C(N)=O [Compound 6c, (S)-2-((3-((Benzofuran-5-yloxy)methyl)benzyl)amino)propanamide] | 30.2 ± 19.8% | 12.2 ± 0.7% | 48.1 ± 4.2% | 11.2 ± 7.6% | –
C[C@H](NCc1ccc(COc2ccc3occc3c2)cc1)C(N)=O [Compound 6d, (S)-2-((4-((Benzofuran-5-yloxy)methyl)benzyl)amino)propanamide] | 42.2 ± 16.3% | 10.9 ± 1.1% | 31.8 ± 0.3% | 28.9 ± 8.5 % | –
C[C@H](NCc1cccc(COc2ccc3ccoc3c2)c1)C(N)=O [Compound 6e, (S)-2-((3-((Benzofuran-6-yloxy)methyl)benzyl)amino)propanamide] | 71.7 ± 22% | 11.4 ± 1.6% | 58.5 ± 1.8% | 45.7 ± 17.2 ^☆ % | Percentage of analgesia relative to ralfinamide (times higher) (ICR (CD−1) male mice [1]): 1.5–2 times; IC50 (hNav1.7): 9.4 ± 2.7 µM; IC50 (hNav1.8): 10.1 ± 1.9 µM; inhibition at 10 µM (hNav1.5): 70.1 ± 2.2%; Inhibitory activity against Nav1.5 (in words) (hNav1.5): moderate inhibitory activity; Analgesic effect in mouse hotplate assay (in words) (mouse [2]): no analgesic effect; Analgesic effect in tail flick assay (in words) (mouse [3]): no analgesic effect
C[C@H](NCc1ccc(COc2ccc3ccoc3c2)cc1)C(N)=O [Compound 6f, (S)-2-((4-((Benzofuran-6-yloxy)methyl)benzyl)amino)propanamide] | 67.8 ± 22.7% | 12.4 ± 2.9% | 50.4 ± 3.6% | 63.2 ± 13.3 ^☆ @ % | Percentage of analgesia relative to ralfinamide (times higher) (ICR (CD−1) male mice [1]): 1.5–2 times; IC50 (hNav1.7): 8.1 ± 1.1 µM; IC50 (hNav1.8): 4.8 ± 0.7 µM; inhibition at 10 µM (hNav1.5): 48 ± 0.1%; Inhibitory activity against Nav1.5 (in words) (hNav1.5): moderate inhibitory activity; Analgesic effect in mouse hotplate assay (in words) (mouse [2]): no analgesic effect; Analgesic effect in tail flick assay (in words) (mouse [3]): no analgesic effect
C[C@H](NCc1cccc(COc2cccc3ncccc23)c1)C(N)=O [Compound 7a, (S)-2-((3-((Quinolin-5-yloxy)methyl)benzyl)amino)propanamide] | 48 ± 27.8% | 6.4 ± 4.9% | 23.8 ± 3.6% | – | –
C[C@H](NCc1ccc(COc2cccc3ncccc23)cc1)C(N)=O [Compound 7b, (S)-2-((4-((Quinolin-5-yloxy)methyl)benzyl)amino)propanamide] | 37.2 ± 25.3% | 14.7 ± 5.4% | 29.8 ± 0.6% | – | –
C[C@H](NCc1cccc(COc2ccc3ncccc3c2)c1)C(N)=O [Compound 7c, (S)-2-((3-((Quinolin-6-yloxy)methyl)benzyl)amino)propanamide] | 81.5 ± 14.8% | 8.6 ± 1.2% | 30 ± 2.9% | – | –
C[C@H](NCc1ccc(COc2ccc3ncccc3c2)cc1)C(N)=O [Compound 7d, (S)-2-((4-((Quinolin-6-yloxy)methyl)benzyl)amino)propanamide] | 20.9 ± 18.7% | 3.7 ± 0.5% | 13.5 ± 0.4% | – | –
C[C@H](NCc1cccc(COc2ccc3cccnc3c2)c1)C(N)=O [Compound 7e, (S)-2-((3-((Quinolin-7-yloxy)methyl)benzyl)amino)propanamide] | 30.6 ± 14.7% | 3.6 ± 3.3% | 47.7 ± 2.7% | – | –
C[C@H](NCc1ccc(COc2ccc3cccnc3c2)cc1)C(N)=O [Compound 7f, (S)-2-((4-((Quinolin-7-yloxy)methyl)benzyl)amino)propanamide] | 15.9 ± 17.6% | -1.8 ± 3.2% | 31.6 ± 3.4% | – | –
C[C@H](NCc1cccc(COc2cccc3cccnc23)c1)C(N)=O [Compound 7g, (S)-2-((3-((Quinolin-8-yloxy)methyl)benzyl)amino)propanamide] | 35.6 ± 26.1% | 14.7 ± 0.2% | 46 ± 0.1% | – | –
C[C@H](NCc1ccc(COc2cccc3cccnc23)cc1)C(N)=O [Compound 7h, (S)-2-((4-((Quinolin-8-yloxy)methyl)benzyl)amino)propanamide] | 57.2 ± 30.1% | 9.1 ± 4.3% | 38.6 ± 4.7% | – | –
C[C@H](NCc1ccc(OCc2ccccc2F)cc1)C(N)=O [Ralfinamide, reference compound] | 42.4% | 8.1 ± 3.8% | 57.7 ± 3.4% | 44.4 ± 15.5 ^☆ % | % Analgesia (formalin test) (ICR (CD−1) male mice [1]; [5]): 42.4 ± 23.3 %; IC50 (hNav1.7): 6.6 ± 1.6 µM; IC50 (hNav1.8): 36.3 ± 8.9 µM; inhibition at 10 µM (hNav1.5): 64.6 ± 3.2%; Analgesic response (formalin test) (ICR (CD−1) male mice [4]): 59.7%
